From patent US8470822B2, “Folate mimetics and folate-receptor binding conjugates thereof” (Purdue Research Foundation, priority 2001, dated 2013)

How the values were obtained:
[1] = molecular target: T1, folate receptor on KB cells (Homo sapiens, UniProt P15328); test: Relative binding affinity: competition with 3H-folic acid for binding to KB cells; conditions: 100 nM 3H-folic acid, 15 minutes on ice; for relative binding activity compared to folic acid: folic acid set to 1; for EC50: read-out: EC50 (displacement of 3H-folic acid bound to folate receptor)
T1 construct: host or cells: KB cells (intact, trypsinized, suspended)
Method: Relative binding affinity. […] The relative affinity of various folate derivatives was determined according to the method described by Westerhoff et al. (Mol. Pharm., 1995, 48:459-471) with slight modification. Briefly, folate receptor-positive KB cells were gently trypsinized in 0.25% trypsin in phosphate-buffered saline (PBS) at room temperature for 3 minutes and then diluted in folate-free RPMI 1640 media (FFRPMI) (Gibco) supplemented with 10% heat-inactivated fetal calf serum. Following a 5 minute 800×g spin and one PBS wash, the final cell pellet was suspended in FFRPMI (no serum). […] Samples were centrifuged at 10,000×g for 5 minutes, cell pellets were suspended in buffer, transferred to individual vials containing 5 mL of scintillation cocktail, and then counted for radioactivity.
Binding activity. The binding activity of pteroyl hydrazide and pteroylhydrazido-BTCA-DAS was determined using the assay described in Example IV.

[2] = tested on: folate-receptor-positive human KB cell tumor xenografts; test: Biodistribution of 111In radiotracer in KB tumor-bearing athymic mice after intravenous administration; assay type: in vivo
Method: Our primary animal model for evaluation of the biodistribution and pharmacokinetics of folate-receptor-targeted radiopharmaceuticals has been athymic mice bearing subcutaneously implanted folate-receptor-positive human KB cell tumors. […] After 3 weeks on folate-free diet, mouse serum folate levels drop to 25±7 nM from the initial 720±260 nM serum folate level when the animals are fed normal rodent chow. This dietary intervention is believed to be a reasonable manipulation of the animal model, since the mice would have serum folate levels only slightly higher than the folate concentration of normal human serum. Thus, in these mouse biodistribution studies the radiotracer is competing for tumor folate receptors with physiologically relevant concentrations of endogenous unlabeled serum folate.
The substantial retention of ^111In in the kidneys is fully consistent with the binding of ^111In-CYK4-013 to tissue folate receptors, since the renal proximal tubule is a known normal tissue site of folate receptor expression. […] The behavior of the ^111In-CYK4-013 radiopharmaceutical in this animal model (Table 2) is very similar to that observed for ^111In-DTPA-Folate (Table 3).
Results. Similar to ^111In-DTPA-Folate, ^111In-CYK4-013 selectively localized in the folate-receptor-positive tumor xenografts, and afforded prolonged tumor retention of ^111In (5.4±0.8; 5.5±1.1; and 3.6±0.6% ID/g at 1 hour, 4 hours, and 24 hours, respectively) (Table 2). […] Blockable binding was also observed in the kidneys, where the folate receptor occurs in the proximal tubules.

[3] = 4 Hours Post Injection BLOCKED, Folic Acid Dose 495 ± 79 μg/kg, n = 4

T1 sequence (P15328 25-234): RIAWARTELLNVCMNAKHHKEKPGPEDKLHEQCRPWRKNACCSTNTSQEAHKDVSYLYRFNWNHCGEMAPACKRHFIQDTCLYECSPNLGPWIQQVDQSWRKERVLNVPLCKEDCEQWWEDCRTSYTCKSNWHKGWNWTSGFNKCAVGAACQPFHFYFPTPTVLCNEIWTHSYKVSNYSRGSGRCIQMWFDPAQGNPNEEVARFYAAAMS

In the case of `Nc1nc(O)c2nc(CNc3ccc(C(=O)O[C@H](C(=O)O)c4ccccc4)cc3)cnc2n1` [ACBP, (S)-α-carboxybenzoyl pteroate], the “relative binding activity compared to folic acid” value (“relative binding activity” below) [1] is reported as 0.46 and the EC50 [1] is reported as 204 nM.
In the case of `Nc1nc2ncc(CNc3ccc(C(=O)NC(C(=O)O)c4ccccn4)cc3)nc2c(=O)[nH]1` (stereo not drawn) [Pte-AP, N-pteroyl-2-amino-2-carboxymethylpyridine], the “relative binding activity” value [1] is reported as 0.48 and the EC50 [1] is reported as 193 nM.
With `NNC(=O)c1ccc(NCc2cnc3nc(N)nc(O)c3n2)cc1` [Pteroyl hydrazide, pteroyl hydrazide] the “relative binding activity” value [1] was 0.74 and the EC50 [1] was 94 nM.
For `Nc1nc2ncc(CNc3ccc(C(=O)N[C@@H](CCC(=O)NCCNC(=O)CN(CCN(CCN(CC(=O)[O-])CC(=O)[O-])CC(=O)[O-])CC(=O)[O-])C(=O)O)cc3)nc2c(=O)[nH]1.[111In]` [^111In-DTPA-Folate, reference compound], the “Percentage of Injected 111In Dose Per Gram: Blood” value ([2]; 1 Hour Post Injection, n = 4) was 0.14 ± 0.03 % ID/g, the “Percentage of Injected 111In Dose Per Gram: Heart” value ([2]; 1 Hour Post Injection, n = 4) was 2.3 ± 0.4 % ID/g and the “Percentage of Injected 111In Dose Per Gram: Kidney” value ([2]; 1 Hour Post Injection, n = 4) was 90 ± 9 % ID/g. For the same molecule, the “Percentage of Injected 111In Dose Per Gram: Liver & Gall Bladder” value ([2]; 1 Hour Post Injection, n = 4) was 4.0 ± 1.5 % ID/g, the “Percentage of Injected 111In Dose Per Gram: Lungs” value ([2]; 1 Hour Post Injection, n = 4) was 1.3 ± 0.1 % ID/g and the “Percentage of Injected 111In Dose Per Gram: Muscle” value ([2]; 1 Hour Post Injection, n = 4) was 3.5 ± 0.8 % ID/g. The “Percentage of Injected 111In Dose Per Gram: Spleen” value ([2]; 1 Hour Post Injection, n = 4) was 0.36 ± 0.03 % ID/g, the “Percentage of Injected 111In Dose Per Gram: Stomach, Intestines & Contents” value ([2]; 1 Hour Post Injection, n = 4) was 1.0 ± 0.2 % ID/g and the “Percentage of Injected 111In Dose Per Gram: Tumor” value ([2]; 1 Hour Post Injection, n = 4) was 5.3 ± 0.4 % ID/g. The Tumor/blood ratio ([2]; 1 Hour Post Injection, n = 4) was 38 ± 7, the Tumor/kidney ratio ([2]; 1 Hour Post Injection, n = 4) was 0.060 ± 0.011 and the Tumor/liver ratio ([2]; 1 Hour Post Injection, n = 4) was 1.5 ± 0.5. The Tumor/muscle ratio ([2]; 1 Hour Post Injection, n = 4) was 1.6 ± 0.3, the Tumor/kidney ratio ([2]; 4 Hours Post Injection BLOCKED, Folic Acid Dose 495 ± 79 μg/kg) was 0.050 ± 0.023 and the “Percentage of Injected 111In Dose Per Gram: Kidney” value ([2]; 4 Hours Post Injection BLOCKED, Folic Acid Dose 495 ± 79 μg/kg, n = 3, anomalous animal excluded) was 2.3 ± 1.0 % ID/g. For the same molecule, the “Percentage of Injected 111In Dose Per Gram: Blood” value [2, 3] was 0.029 ± 0.011 % ID/g, the “Percentage of Injected 111In Dose Per Gram: Heart” value [2, 3] was 0.022 ± 0.010 % ID/g and the “Percentage of Injected 111In Dose Per Gram: Liver & Gall Bladder” value [2, 3] was 0.12 ± 0.03 % ID/g. The “Percentage of Injected 111In Dose Per Gram: Lungs” value [2, 3] was 0.065 ± 0.021 % ID/g, the “Percentage of Injected 111In Dose Per Gram: Muscle” value [2, 3] was 0.023 ± 0.013 % ID/g and the “Percentage of Injected 111In Dose Per Gram: Spleen” value [2, 3] was 0.060 ± 0.021 % ID/g. The “Percentage of Injected 111In Dose Per Gram: Stomach, Intestines & Contents” value [2, 3] was 0.49 ± 0.20 % ID/g, the “Percentage of Injected 111In Dose Per Gram: Tumor” value [2, 3] was 0.16 ± 0.07 % ID/g and the Tumor/blood ratio [2, 3] was 5.5 ± 0.8. The Tumor/liver ratio [2, 3] was 1.4 ± 0.4, the Tumor/muscle ratio [2, 3] was 8.4 ± 3.8 and the “Percentage of Injected 111In Dose Per Gram: Blood” value ([2]; 4 Hours Post Injection, n = 4) was 0.064 ± 0.007 % ID/g. For the same molecule, the “Percentage of Injected 111In Dose Per Gram: Heart” value ([2]; 4 Hours Post Injection, n = 4) was 2.0 ± 0.3 % ID/g, the “Percentage of Injected 111In Dose Per Gram: Kidney” value ([2]; 4 Hours Post Injection, n = 4) was 85 ± 12 % ID/g and the “Percentage of Injected 111In Dose Per Gram: Liver & Gall Bladder” value ([2]; 4 Hours Post Injection, n = 4) was 2.2 ± 0.4 % ID/g. The “Percentage of Injected 111In Dose Per Gram: Lungs” value ([2]; 4 Hours Post Injection, n = 4) was 1.1 ± 0.3 % ID/g, the “Percentage of Injected 111In Dose Per Gram: Muscle” value ([2]; 4 Hours Post Injection, n = 4) was 2.9 ± 0.7 % ID/g and the “Percentage of Injected 111In Dose Per Gram: Spleen” value ([2]; 4 Hours Post Injection, n = 4) was 0.35 ± 0.11 % ID/g. For the same molecule, the “Percentage of Injected 111In Dose Per Gram: Stomach, Intestines & Contents” value ([2]; 4 Hours Post Injection, n = 4) was 1.0 ± 0.2 % ID/g, the “Percentage of Injected 111In Dose Per Gram: Tumor” value ([2]; 4 Hours Post Injection, n = 4) was 6.8 ± 1.2 % ID/g and the Tumor/blood ratio ([2]; 4 Hours Post Injection, n = 4) was 106 ± 15. The Tumor/kidney ratio ([2]; 4 Hours Post Injection, n = 4) was 0.080 ± 0.012, the Tumor/liver ratio ([2]; 4 Hours Post Injection, n = 4) was 3.3 ± 1.1 and the Tumor/muscle ratio ([2]; 4 Hours Post Injection, n = 4) was 2.5 ± 0.9.
